From publication PMC4822888, “Subtype-Selective Small Molecule Inhibitors Reveal a Fundamental Role for Nav1.7 in Nociceptor Electrogenesis, Axonal Conduction and Presynaptic Release” (PLoS ONE, 2016)

Tests used:
[1] = biological target: dogNav1.7 (Canis lupus familiaris, UniProt A0A8I3P4Z8); test: cell-based; assay type: cell-based, dog
[2] = test system: L-type calcium channels; test: Blockade of L-type calcium channels
[3] = test system: human DRG neurons (hDRG neurons); test: Voltage clamp of TTX-S current in human DRG neurons; assay type: cell-based
[4] = biological target: Adenosine A1 receptor (Homo sapiens, UniProt P30542); test: Off target activity panel; assay type: binding; settings: read-out: Inhibition at test concentration (%)
[5] = biological target: Acetylcholinesterase (Homo sapiens, UniProt P22303); test: Off target activity panel; assay type: biochemical; settings: read-out: Inhibition at test concentration (%)
[6] = test system: Adrenergic alpha 1 receptor; test: Off target activity panel; assay type: binding; settings: 10 µM
[7] = biological target: Adrenergic alpha 2B receptor (Homo sapiens, UniProt P18089); test: Off target activity panel; assay type: binding; settings: read-out: Inhibition at test concentration (%)
[8] = test system: AMPA receptor; test: Off target activity panel; assay type: binding; settings: 10 µM
[9] = biological target: Beta 1 adrenergic receptor (Homo sapiens, UniProt P08588); test: Off target activity panel; assay type: binding; settings: read-out: Inhibition at test concentration (%)
[10] = biological target: Beta 2 adrenergic receptor (Homo sapiens, UniProt P07550); test: Off target activity panel; assay type: binding; settings: read-out: Inhibition at test concentration (%)
[11] = test system: GABA Benzodiazepine site; test: Off target activity panel; assay type: binding; settings: 10 µM
[12] = test system: Calcium channel L-type (dihydropyridine site); test: Off target activity panel; assay type: binding; settings: 10 µM
[13] = test system: Calcium channel L-type (verapamil site); test: Off target activity panel; assay type: binding; settings: 10 µM
[14] = biological target: Cannabinoid receptor 2 (Homo sapiens, UniProt P34972); test: Off target activity panel; assay type: binding; settings: read-out: Inhibition at test concentration (%)
[15] = biological target: Carbonic anhydrase II (Homo sapiens, UniProt P00918); test: Off target activity panel; assay type: biochemical; settings: read-out: Inhibition at test concentration (%)
[16] = biological target: Cholycystokinin 2 (CCKB) receptor (Homo sapiens, UniProt P32239); test: Off target activity panel; assay type: binding; settings: read-out: Inhibition at test concentration (%)
[17] = biological target: Delta opioid receptor (Homo sapiens, UniProt P41143); test: Off target activity panel; assay type: binding; settings: read-out: Inhibition at test concentration (%)
[18] = biological target: Dopamine D1 receptor (Homo sapiens, UniProt P21728); test: Off target activity panel; assay type: binding; settings: read-out: Inhibition at test concentration (%)
[19] = biological target: Dopamine D4 receptor (Homo sapiens, UniProt P21917); test: Off target activity panel; assay type: binding; settings: read-out: Inhibition at test concentration (%)
[20] = biological target: Dopamine transporter (Homo sapiens, UniProt Q01959); test: Off target activity panel; assay type: binding; settings: read-out: Inhibition at test concentration (%)
[21] = biological target: Histamine H1 receptor (Homo sapiens, UniProt P35367); test: Off target activity panel; assay type: binding; settings: read-out: Inhibition at test concentration (%)
[22] = biological target: Histamine H2 receptor (Homo sapiens, UniProt P25021); test: Off target activity panel; assay type: binding; settings: read-out: Inhibition at test concentration (%)
[23] = biological target: Histamine H3 receptor (Homo sapiens, UniProt Q9Y5N1); test: Off target activity panel; assay type: binding; settings: read-out: Inhibition at test concentration (%)
[24] = biological target: Matrix metalloprotease 9 (Homo sapiens, UniProt P14780); test: Off target activity panel; assay type: biochemical; settings: read-out: Inhibition at test concentration (%)
[25] = biological target: Melanocortin 4 receptor (Homo sapiens, UniProt P32245); test: Off target activity panel; assay type: binding; settings: read-out: Inhibition at test concentration (%)
[26] = biological target: Monoamine oxidase A (Homo sapiens, UniProt P21397); test: Off target activity panel; assay type: biochemical; settings: read-out: Inhibition at test concentration (%)
[27] = Off target activity panel; assay type: binding; settings: read-out: Inhibition at test concentration (%)
[28] = biological target: Mu opiod receptor (Homo sapiens, UniProt P35372); test: Off target activity panel; assay type: binding; settings: read-out: Inhibition at test concentration (%)
[29] = biological target: Muscarinic M2 receptor (Homo sapiens, UniProt P08172); test: Off target activity panel; assay type: binding; settings: read-out: Inhibition at test concentration (%)
[30] = biological target: Muscarinic M3 receptor (Homo sapiens, UniProt P20309); test: Off target activity panel; assay type: binding; settings: read-out: Inhibition at test concentration (%)
[31] = test system: Muscle-type nicotinic receptor; test: Off target activity panel; assay type: binding; settings: 10 µM
[32] = biological target: Neurokinin NK1 receptor (Homo sapiens, UniProt P25103); test: Off target activity panel; assay type: binding; settings: read-out: Inhibition at test concentration (%)
[33] = test system: NMDA receptor (phencyclidine site); test: Off target activity panel; assay type: binding; settings: 10 µM
[34] = biological target: PDE2A (Homo sapiens, UniProt O00408); test: Off target activity panel; assay type: biochemical; settings: read-out: Inhibition at test concentration (%)
[35] = biological target: PDE11 (Homo sapiens, UniProt Q9HCR9); test: Off target activity panel; assay type: biochemical; settings: read-out: Inhibition at test concentration (%)
[36] = biological target: Serotonin 5-HT transporter (Homo sapiens, UniProt P31645); test: Off target activity panel; assay type: binding; settings: read-out: Inhibition at test concentration (%)
[37] = biological target: Serotonin 5-HT1B (Homo sapiens, UniProt P28222); test: Off target activity panel; assay type: binding; settings: read-out: Inhibition at test concentration (%)
[38] = biological target: Serotonin 5-HT2A (Homo sapiens, UniProt P28223); test: Off target activity panel; assay type: binding; settings: read-out: Inhibition at test concentration (%)
[39] = biological target: Serotinin 5-HT2B (Homo sapiens, UniProt P41595); test: Off target activity panel; assay type: binding; settings: read-out: Inhibition at test concentration (%)
[40] = biological target: Serotonin 5-HT4 (Homo sapiens, UniProt Q13639); test: Off target activity panel; assay type: binding; settings: read-out: Inhibition at test concentration (%)
[41] = biological target: Serotonin 5-HT6 (Homo sapiens, UniProt P50406); test: Off target activity panel; assay type: binding; settings: read-out: Inhibition at test concentration (%)
[42] = biological target: Serotonin 5-HT7 (Homo sapiens, UniProt P34969); test: Off target activity panel; assay type: binding; settings: read-out: Inhibition at test concentration (%)
[43] = test system: Sigma receptor; test: Off target activity panel; assay type: binding; settings: 10 µM
[44] = biological target: Urotensin receptor (Homo sapiens, UniProt Q9UKP6); test: Off target activity panel; assay type: binding; settings: read-out: Inhibition at test concentration (%)
[45] = biological target: hERG potassium channels (Homo sapiens, UniProt Q12809)

## Nc1[nH]ncc1-c1cc(Cl)ccc1Oc1cc(F)c(S(=O)(=O)Nc2cscn2)cc1Cl [PF-05089771, 4-[2-(5-amino-1H-pyrazol-4-yl)-4-chlorophenoxy]-5-chloro-2-fluoro-N-(1,3-thiazol-4-yl)benzenesulfonamide]
[1]
  IC50: 0.013 µM
[1]; dogNav1.7
  Slope: 0.9
[2]
  IC50: 10 µM
[3]; 30 nM, in presence of A-803467
  Block of TTX-S current: 75.5 ± 10.5%
[3]; 100 nM
  Block of TTX-S current: complete block
[3]; DRG neuron, read-out: IC50 for TTX-S current block
  IC50: 0.0084 ± 0.0012 µM
[4]
  inhibition at 10 µM: 15%
[5]
  inhibition at 10 µM: 17%
[6]
  Inhibition at test concentration (%): -5%
[7]
  inhibition at 10 µM: 24%
[8]
  Inhibition at test concentration (%): -13%
[9]
  inhibition at 10 µM: 12%
[10]
  inhibition at 10 µM: 4%
[11]
  Inhibition at test concentration (%): 5%
[12]
  Inhibition at test concentration (%): 4%
[13]
  Inhibition at test concentration (%): -6%
[14]
  inhibition at 10 µM: -5%
[15]
  inhibition at 10 µM: 21%
[16]
  inhibition at 10 µM: 13%
[17]
  inhibition at 10 µM: 15%
[18]
  inhibition at 10 µM: 0%
[19]
  inhibition at 10 µM: 5%
[20]
  inhibition at 10 µM: 18%
[21]
  inhibition at 10 µM: 12%
[22]
  inhibition at 10 µM: -3%
[23]
  inhibition at 10 µM: 10%
[24]
  inhibition at 10 µM: -3%
[25]
  inhibition at 10 µM: -11%
[26]
  inhibition at 10 µM: -13%
[27]
  inhibition at 10 µM: 64%
[28]
  inhibition at 10 µM: 7%
[29]
  inhibition at 10 µM: 3%
[30]
  inhibition at 10 µM: 16%
[31]
  Inhibition at test concentration (%): 2%
[32]
  inhibition at 10 µM: 5%
[33]
  Inhibition at test concentration (%): -3%
[34]
  inhibition at 10 µM: 9%
[35]
  inhibition at 10 µM: 6%
[36]
  inhibition at 10 µM: 0%
[37]
  inhibition at 10 µM: 6%
[38]
  inhibition at 10 µM: -2%
[39]
  inhibition at 10 µM: -6%
[40]
  inhibition at 10 µM: -7%
[41]
  inhibition at 10 µM: 2%
[42]
  inhibition at 10 µM: -7%
[43]
  Inhibition at test concentration (%): -8%
[44]
  inhibition at 10 µM: 32%
[45]
  IC50: 10 µM
